According to US7727511B2, “Agents for imaging soluble a-beta” (priority 2003, dated 2010):

Columns and labels:
[1] = target: T1, beta-amyloid 1-42 oligomer (20% biotin) (Homo sapiens, UniProt P05067); experiment: SPA competition binding assay against 3H-49b on soluble oligomers; conditions: 50 uM unlabeled competitor, 130 nM 3H-49b
T1 construct: 12 μg beta-amyloid 1-42 oligomer (20% biotin); purchased Bachem H-5642; host or cells: synthetic peptide
Experimental: Lyophilized Streptavidin-Ysi beads (GE Healthcare) were reconstituted to 100 mg/mL in deioniozed water, and then further diluted in deionized water to give a suspension containing 0.25 mg/10 μl water. Unlabeled 49b and other benzofuran probes were dissolved in DMSO to give a final stock concentration of 15 mM.
For the saturation-binding assay, isotopic dilution of radiolabeled 49b with unlabeled 49b was performed. ^3H-49b was added to 500 uM of unlabeled 49b to a final concentration of 50 μCi/mL ^3H-49b. The probe solution was then serially diluted in PBS to give six solutions giving 6.6, 13.1, 26.3, 52.5, 105, or 210 uM in the final assay well. Each concentration of the probe solution was incubated with 12 μg beta-amyloid 1-42 oligomer (20% biotin) or 1-40 (20% biotin) fibrils in a total volume of 90 μl. Assays were incubated at room temp for 2 hrs before addition of 10 μL YSi-streptavidin (0.25 mg) SPA bead. Assays were set-up in triplicate in 96-well NBS plates (Costar). Assays were incubated overnight and counted the following morning. […] The specific activities of the four probes were different, however the level of activity was the same at the concentrations where the probes were tested. For this assay, 130 nM of ^3H-49b, 90 nM ^3H-cimetidine, 14 nM ^3H-caffeine, and 6 nM ^3H-AZT were tested for direct binding to 12 ug of beta-amyloid-42 oligomer (20% biotin). Assay conditions were the same as described in saturation binding assay. […]
Data analyses were performed using Sigma Plot or GraphPad Prism® version 4. Curves were fitted using non-linear regression. KD values and IC50 values were estimated from the binding curves.
For the competition binding assay between tritium-labeled 49b and various unlabeled benzofuran analogs, assays contained 130 nM ^3H-49b and 50 uM of each of the unlabeled benzofuran analogs. As controls, 10 uM and 50 uM of unlabeled 49b were included in the assays.

beta-amyloid fibrils = target: T2, beta-amyloid fibrils (Homo sapiens, UniProt P05067); experiment: Ex vivo fluorescent binding assay, pre-formed fibrils on naive rat brain sections; conditions: 50 μM probe, naive rat brain section, fluorescence microscopy
T2 construct: Lyophilized human beta-amyloid 1-40 peptide (Catalog number H-1194, Bachem); purchased Bachem H-1194; host or cells: synthetic peptide
T2 sequence (P05067 672-711 limits assumed): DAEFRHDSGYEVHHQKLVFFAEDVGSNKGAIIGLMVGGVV
Experimental: B. Insoluble A-beta (1-40) fibril formation: Lyophilized human beta-amyloid 1-40 peptide (Catalog number H-1194, Bachem) was solubilized with HFIP to produce a dry clear film following the process described above for beta-amyloid 1-42. The clear film of beta-amyloid 1-40 was diluted with distilled water to achieve a 6 mg/mL concentration. […] The clear solution was diluted to 1 mg/mL with PBS, pH 7.4 to obtain a final concentration of 1 mg/mL beta-amyloid 1-40, and then incubated at 37° C. on an orbital shaker at 200 RPM for 4 days. A cloudy solution was produced, and the fibril production was confirmed by measuring changes in fluorescence of Thioflavin T, as well as by atomic force microscopy and transmission electron microscopy. […]
(§1) A 1/100th dilution of the secondary antibody Alexa Fluor 594-goat anti-mouse IgG (Molecular Probes) in PBS was applied onto the slides, and incubated at room temperature for 1.5 hours. […] Microscopic examination and imaging was performed using a Leica wide-field fluorescence microscope using filter cube A (band pass 340-380 nm with a 400 nm dichroic mirror and a long pass 400 nm suppression filter) for 49b, cube E4 (band pass 436 nm with 455 dichroic mirror and a long pass 470 nm suppression filter) for Thioflavin T, and TX2 (band pass 520-600 nm with 595 nm dichroic mirror and 645/75 band pass suppression filter) for 6E10 immunostaining. […]

[2] = target: T1, beta-amyloid 1-42 oligomer (20% biotin); experiment: Scintillation proximity assay (SPA), direct/saturation binding of tritium labeled probe to soluble oligomers
Experimental: To prepare soluble oligomer, the film was dissolved in appropriate amount of dry DMSO (Sigma), and Ham's F12 media (Biosource) or PBS (Sigma, D8537) was added and incubated at 4° C. for 24 hours (final concentration of 200 uM or 0.9 mg/mL beta-amyloid in 2% DMSO). The tube containing the soluble oligomers was centrifuged at 13,000 rpm for 5 mins, and its supernatant was transferred to a clean tube.
For SPA and atomic force microscopy (AFM) experiments, preparations of soluble oligomers and fibrils contained 20% biotinylated beta-amyloid 1-42 and 1-40, respectively (H-5642, H-5914, Bachem).
For the saturation-binding assay, isotopic dilution of radiolabeled 49b with unlabeled 49b was performed. ^3H-49b was added to 500 uM of unlabeled 49b to a final concentration of 50 μCi/mL ^3H-49b. The probe solution was then serially diluted in PBS to give six solutions giving 6.6, 13.1, 26.3, 52.5, 105, or 210 uM in the final assay well. Each concentration of the probe solution was incubated with 12 μg beta-amyloid 1-42 oligomer (20% biotin) or 1-40 (20% biotin) fibrils in a total volume of 90 μl. Assays were incubated at room temp for 2 hrs before addition of 10 μL YSi-streptavidin (0.25 mg) SPA bead. Assays were set-up in triplicate in 96-well NBS plates (Costar). Assays were incubated overnight and counted the following morning. […] Assay conditions were the same as described in saturation binding assay.
A direct binding assay using tritium labeled 49b was performed against oligomers or fibrils by scintillation proximity assay (SPA). Beta-amyloid containing 20% biotin and tritiated 49b were incubated in solution for two hours prior to addition of the Ysi-Streptavidin beads.

[3] = target: T3, beta-amyloid soluble oligomers (Homo sapiens, UniProt P05067); experiment: Ex vivo fluorescent binding assay, pre-formed soluble oligomers on naive rat brain sections; conditions: 50 μM probe, naive rat brain section, fluorescence microscopy
T3 construct: 1 mg of human beta-amyloid 1-42 (H-5642, Bachem); purchased Bachem H-5642; host or cells: synthetic peptide
T3 sequence (P05067 672-713 limits assumed): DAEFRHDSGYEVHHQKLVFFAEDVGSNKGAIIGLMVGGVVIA
Experimental: A. 1 mg of human beta-amyloid 1-42 (H-5642, Bachem) and 500 uL of 1,1,1,3,3,3 hexafluoro-2-propanol (HFIP) (Aldrich) were chilled in separate bottles on ice for 30 mins. Cold beta-amyloid 1-42 was solubilized with cold HFIP. The mixture was incubated for 1 hr at room temperature until it turned clear. The resulting solution was then dried to a film under vacuum. The film was dissolved again in cold HFIP and incubated another 1 hr at room temperature. The resulting solution was separated into aliquots in several microcentrifuge tubes. HFIP was removed under vacuum, and the films were stored at −20° C. until use. […]
as §1

T1 sequence (P05067 672-713 limits assumed): as above

## O=Cc1ccc(-c2oc3ccccc3c2CO)o1 [Compound 49b, 2-(2-formyl-5-furanyl)-3-hydroxymethyl benzofuran]
[1]
  inhibition at 50 µM: 61%
beta-amyloid fibrils
  staining of immobilized fibrils: No staining was observed
[2]; SPA saturation binding of 3H-49b, isotopic dilution with unlabeled 49b
  Kd: 50 µM
[2]; SPA saturation binding, oligomers
  Bmax: 60-80 nmol/mg beta-amyloid
[2]; from Bmax, oligomers
  molar ratio probe : beta-amyloid: 1 probe: 3-4 beta-amyloid
[3]
  staining of immobilized oligomers: clear staining of oligomers with low background
